# Experimental data as given in patent publication US20230085307A1, “PYRIDAZINONE COMPOUND AND HERBICIDE” (NISSAN CHEMICAL CORPORATION, priority 2019, published 2023).
# How the values were obtained:
# redroot pigweed = experiment: Test Example 5: herbicidal effect by foliage application, plastic box (Table 20, symbol N); assay type: in vivo, redroot pigweed (Amaranthus retroflexus); conditions: foliage application; for herbicidal effect on N: redroot pigweed: evaluated three weeks after application
# Procedure, shortened: (§1)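 Sow seeds spot-wise in sterilized diluvial soil; cover with ~1.5 cm soil. Grow 14 days in greenhouse, 25° C. to 30° C. Spray foliage with emulsion diluted to predetermined amount. Rate effect after 3 weeks.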
# lambsquarters = experiment: Test Example 5: herbicidal effect by foliage application, plastic box (Table 20, symbol O); assay type: in vivo, lambsquarters (Chenopodium album); conditions: foliage application; for herbicidal effect on O: lambsquarters: evaluated three weeks after application
# Procedure, shortened: as §1
# wild oat = experiment: Test Example 5: herbicidal effect by foliage application, plastic box (Table 20, symbol I); assay type: in vivo, wild oat (Avena fatua); conditions: foliage application; for herbicidal effect on I: wild oat: evaluated three weeks after application
# Procedure, shortened: as §1
# chickweed = experiment: Test Example 5: herbicidal effect by foliage application, plastic box (Table 20, symbol P); assay type: in vivo, common chickweed (Stellaria media); conditions: foliage application; for herbicidal effect on P: chickweed: evaluated three weeks after application
# Procedure, shortened: as §1
# barnyard grass [1] = experiment: Test Example 5: herbicidal effect by foliage application, plastic box (Table 20, symbol H); assay type: in vivo, barnyard grass (Echinochloa crus-galli); conditions: foliage application; for herbicidal effect on H: barnyard grass: evaluated three weeks after application
# Procedure, shortened: as §1
# persian speedwell = experiment: Test Example 5: herbicidal effect by foliage application, plastic box (Table 20, symbol R); assay type: in vivo, Persian speedwell (Veronica persica); conditions: foliage application; for herbicidal effect on R: persian speedwell: evaluated three weeks after application
# Procedure, shortened: as §1
# southern crabgrass = experiment: Test Example 5: herbicidal effect by foliage application, plastic box (Table 20, symbol F); assay type: in vivo, southern crabgrass (Digitaria ciliaris); conditions: foliage application; for herbicidal effect on F: southern crabgrass: evaluated three weeks after application
# Procedure, shortened: as §1
# green foxtail = experiment: Test Example 5: herbicidal effect by foliage application, plastic box (Table 20, symbol G); assay type: in vivo, green foxtail (Setaria viridis); conditions: foliage application; for herbicidal effect on G: green foxtail: evaluated three weeks after application
# Procedure, shortened: as §1
# blackgrass = experiment: Test Example 5: herbicidal effect by foliage application, plastic box (Table 20, symbol J); assay type: in vivo, blackgrass (Alopecurus myosuroides); conditions: foliage application; for herbicidal effect on J: blackgrass: evaluated three weeks after application
# Procedure, shortened: as §1
# velvetleaf = experiment: Test Example 5: herbicidal effect by foliage application, plastic box (Table 20, symbol M); assay type: in vivo, velvetleaf (Abutilon theophrasti); conditions: foliage application; for herbicidal effect on M: velvetleaf: evaluated three weeks after application
# Procedure, shortened: as §1
# Italian ryegrass = experiment: Test Example 5: herbicidal effect by foliage application, plastic box (Table 20, symbol K); assay type: in vivo, Italian ryegrass (Lolium multiflorum); conditions: foliage application; for herbicidal effect on K: Italian ryegrass: evaluated three weeks after application
# Procedure, shortened: as §1
# windgrass = experiment: Test Example 5: herbicidal effect by foliage application, plastic box (Table 20, symbol L); assay type: in vivo, windgrass (Apera spica-venti); conditions: foliage application; for herbicidal effect on L: windgrass: evaluated three weeks after application
# Procedure, shortened: as §1
# Chinese sprangletop = experiment: Test Example 3: herbicidal effect by foliage application, Wagner pot (Table 18, symbol D); assay type: in vivo, chinese sprangletop (Leptochloa chinensis)
# Procedure, shortened: (§2)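 Plants were sown in alluvial soil held under 0.1–0.5 cm standing water and grown 14 days in a greenhouse at 25–30 °C. An emulsifiable formulation, water-diluted to the set dose, was then sprayed onto the foliage, and effects were scored three weeks later using previously defined criteria.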
# rice flat sedge = experiment: Test Example 3: herbicidal effect by foliage application, Wagner pot (Table 18, symbol E); assay type: in vivo, rice flat sedge (Cyperus iria)
# Procedure, shortened: as §2
# barnyard grass [2] = experiment: Test Example 3: herbicidal effect by foliage application, Wagner pot (Table 18, symbol H); assay type: in vivo, barnyard grass (Echinochloa crus-galli)
# Procedure, shortened: as §2
# [3] = 320 g/ha, three weeks after application
# [4] = AAH 320 g/ha, three weeks after application
# [5] = AAH 80 g/ha, three weeks after application
smiles,measurement,setting,value
COc1ccc(-c2sc3ccccc3c2-c2c(O)c(C)nn(C)c2=O)c(OC)n1 [1-079],"herbicidal effect grade, N: redroot pigweed",redroot pigweed; [3],0 (Herbicidal rate of 5% or less (almost no effect))
same,"herbicidal effect grade, O: lambsquarters",lambsquarters; [3],0 (Herbicidal rate of 5% or less (almost no effect))
same,"herbicidal effect grade, I: wild oat",wild oat; [3],0 (Herbicidal rate of 5% or less (almost no effect))
same,"herbicidal effect grade, P: chickweed",chickweed; [3],1 (Herbicidal rate of 5% or more and less than 20%)
same,"herbicidal effect grade, H: barnyard grass",barnyard grass [1]; [3],0 (Herbicidal rate of 5% or less (almost no effect))
same,"herbicidal effect grade, R: persian speedwell",persian speedwell; [3],0 (Herbicidal rate of 5% or less (almost no effect))
same,"herbicidal effect grade, F: southern crabgrass",southern crabgrass; [3],0 (Herbicidal rate of 5% or less (almost no effect))
same,"herbicidal effect grade, G: green foxtail",green foxtail; [3],0 (Herbicidal rate of 5% or less (almost no effect))
same,"herbicidal effect grade, J: blackgrass",blackgrass; [3],0 (Herbicidal rate of 5% or less (almost no effect))
same,"herbicidal effect grade, M: velvetleaf",velvetleaf; [3],0 (Herbicidal rate of 5% or less (almost no effect))
same,"herbicidal effect grade, K: Italian ryegrass",Italian ryegrass; [3],0 (Herbicidal rate of 5% or less (almost no effect))
same,"herbicidal effect grade, L: windgrass",windgrass; [3],0 (Herbicidal rate of 5% or less (almost no effect))
COc1cc(C(F)(F)F)ccc1-c1sc2ccccc2c1-c1c(O)c(C)nn(C)c1=O [1-155],"herbicidal effect on D (Chinese sprangletop), rating 0-5",Chinese sprangletop; 320 g/ha,0 (Herbicidal rate of 5% or less (almost no effect))
same,"N: redroot pigweed, herbicidal effect",redroot pigweed; [4],2 (Herbicidal rate of 20% or more and less than 40%)
same,"O: lambsquarters, herbicidal effect",lambsquarters; [4],1 (Herbicidal rate of 5% or more and less than 20%)
same,"I: wild oat, herbicidal effect",wild oat; [4],1 (Herbicidal rate of 5% or more and less than 20%)
same,"P: chickweed, herbicidal effect",chickweed; [4],5 (Herbicidal rate of 90% or more (almost completely withered))
same,"herbicidal effect on E (rice flat sedge), rating 0-5",rice flat sedge; 320 g/ha,3 (Herbicidal rate of 40% or more and less than 70%)
same,"H: barnyard grass, herbicidal effect",barnyard grass [1]; [4],1 (Herbicidal rate of 5% or more and less than 20%)
same,"herbicidal effect on H (barnyard grass), rating 0-5",barnyard grass [2]; 320 g/ha,3 (Herbicidal rate of 40% or more and less than 70%)
same,"R: persian speedwell, herbicidal effect",persian speedwell; [4],4 (Herbicidal rate of 70% or more and less than 90%)
same,"F: southern crabgrass, herbicidal effect",southern crabgrass; [4],0 (Herbicidal rate of 5% or less (almost no effect))
same,"G: green foxtail, herbicidal effect",green foxtail; [4],3 (Herbicidal rate of 40% or more and less than 70%)
same,"J: blackgrass, herbicidal effect",blackgrass; [4],4 (Herbicidal rate of 70% or more and less than 90%)
same,"M: velvetleaf, herbicidal effect",velvetleaf; [4],0 (Herbicidal rate of 5% or less (almost no effect))
same,"K: Italian ryegrass, herbicidal effect",Italian ryegrass; [4],4 (Herbicidal rate of 70% or more and less than 90%)
same,"L: windgrass, herbicidal effect",windgrass; [4],4 (Herbicidal rate of 70% or more and less than 90%)
CCCC(=O)Oc1c(OC)nn(C)c(=O)c1-c1c(-c2ccc(OC(F)(F)F)cc2)sc2ccccc12 [1-163],"herbicidal effect on D (Chinese sprangletop), rating 0-5",Chinese sprangletop; 80 g/ha,3 (Herbicidal rate of 40% or more and less than 70%)
same,"N: redroot pigweed, herbicidal effect",redroot pigweed; [5],3 (Herbicidal rate of 40% or more and less than 70%)
same,"O: lambsquarters, herbicidal effect",lambsquarters; [5],2 (Herbicidal rate of 20% or more and less than 40%)
same,"I: wild oat, herbicidal effect",wild oat; [5],0 (Herbicidal rate of 5% or less (almost no effect))
same,"P: chickweed, herbicidal effect",chickweed; [5],4 (Herbicidal rate of 70% or more and less than 90%)
same,"herbicidal effect on E (rice flat sedge), rating 0-5",rice flat sedge; 80 g/ha,0 (Herbicidal rate of 5% or less (almost no effect))
same,"H: barnyard grass, herbicidal effect",barnyard grass [1]; [5],0 (Herbicidal rate of 5% or less (almost no effect))
same,"herbicidal effect on H (barnyard grass), rating 0-5",barnyard grass [2]; 80 g/ha,1 (Herbicidal rate of 5% or more and less than 20%)
same,"R: persian speedwell, herbicidal effect",persian speedwell; [5],5 (Herbicidal rate of 90% or more (almost completely withered))
same,"F: southern crabgrass, herbicidal effect",southern crabgrass; [5],0 (Herbicidal rate of 5% or less (almost no effect))
same,"G: green foxtail, herbicidal effect",green foxtail; [5],0 (Herbicidal rate of 5% or less (almost no effect))
same,"J: blackgrass, herbicidal effect",blackgrass; [5],0 (Herbicidal rate of 5% or less (almost no effect))
same,"M: velvetleaf, herbicidal effect",velvetleaf; [5],0 (Herbicidal rate of 5% or less (almost no effect))
same,"K: Italian ryegrass, herbicidal effect",Italian ryegrass; [5],0 (Herbicidal rate of 5% or less (almost no effect))
same,"L: windgrass, herbicidal effect",windgrass; [5],0 (Herbicidal rate of 5% or less (almost no effect))
COC(=O)COc1ccc(-c2sc3ccc(F)cc3c2-c2c(O)c(C)nn(C)c2=O)cc1 [2-070],"herbicidal effect on D (Chinese sprangletop), rating 0-5",Chinese sprangletop; 320 g/ha,0 (Herbicidal rate of 5% or less (almost no effect))
same,herbicidal effect on N: redroot pigweed,redroot pigweed; 320 g/ha,2 (Herbicidal rate of 20% or more and less than 40%)
same,herbicidal effect on O: lambsquarters,lambsquarters; 320 g/ha,0 (Herbicidal rate of 5% or less (almost no effect))
same,herbicidal effect on I: wild oat,wild oat; 320 g/ha,0 (Herbicidal rate of 5% or less (almost no effect))
same,herbicidal effect on P: chickweed,chickweed; 320 g/ha,0 (Herbicidal rate of 5% or less (almost no effect))
same,"herbicidal effect on E (rice flat sedge), rating 0-5",rice flat sedge; 320 g/ha,0 (Herbicidal rate of 5% or less (almost no effect))
same,herbicidal effect on H: barnyard grass,barnyard grass [1]; 320 g/ha,0 (Herbicidal rate of 5% or less (almost no effect))
same,"herbicidal effect on H (barnyard grass), rating 0-5",barnyard grass [2]; 320 g/ha,2 (Herbicidal rate of 20% or more and less than 40%)
same,herbicidal effect on R: persian speedwell,persian speedwell; 320 g/ha,0 (Herbicidal rate of 5% or less (almost no effect))
same,herbicidal effect on F: southern crabgrass,southern crabgrass; 320 g/ha,0 (Herbicidal rate of 5% or less (almost no effect))
same,herbicidal effect on G: green foxtail,green foxtail; 320 g/ha,0 (Herbicidal rate of 5% or less (almost no effect))
same,herbicidal effect on J: blackgrass,blackgrass; 320 g/ha,0 (Herbicidal rate of 5% or less (almost no effect))
same,herbicidal effect on M: velvetleaf,velvetleaf; 320 g/ha,0 (Herbicidal rate of 5% or less (almost no effect))
same,herbicidal effect on K: Italian ryegrass,Italian ryegrass; 320 g/ha,0 (Herbicidal rate of 5% or less (almost no effect))
same,herbicidal effect on L: windgrass,windgrass; 320 g/ha,0 (Herbicidal rate of 5% or less (almost no effect))
Cc1nn(C)c(=O)c(-c2c(-c3ccc(Oc4ccccc4)cc3)sc3ccc(F)cc23)c1O [2-072],"herbicidal effect on D (Chinese sprangletop), rating 0-5",Chinese sprangletop; 320 g/ha,3 (Herbicidal rate of 40% or more and less than 70%)
same,herbicidal effect on N: redroot pigweed,redroot pigweed; 320 g/ha,3 (Herbicidal rate of 40% or more and less than 70%)
same,herbicidal effect on O: lambsquarters,lambsquarters; 320 g/ha,1 (Herbicidal rate of 5% or more and less than 20%)
same,herbicidal effect on I: wild oat,wild oat; 320 g/ha,0 (Herbicidal rate of 5% or less (almost no effect))
same,herbicidal effect on P: chickweed,chickweed; 320 g/ha,0 (Herbicidal rate of 5% or less (almost no effect))
same,"herbicidal effect on E (rice flat sedge), rating 0-5",rice flat sedge; 320 g/ha,5 (Herbicidal rate of 90% or more (almost completely withered))
same,herbicidal effect on H: barnyard grass,barnyard grass [1]; 320 g/ha,0 (Herbicidal rate of 5% or less (almost no effect))
same,"herbicidal effect on H (barnyard grass), rating 0-5",barnyard grass [2]; 320 g/ha,2 (Herbicidal rate of 20% or more and less than 40%)
same,herbicidal effect on R: persian speedwell,persian speedwell; 320 g/ha,5 (Herbicidal rate of 90% or more (almost completely withered))
same,herbicidal effect on F: southern crabgrass,southern crabgrass; 320 g/ha,0 (Herbicidal rate of 5% or less (almost no effect))
same,herbicidal effect on G: green foxtail,green foxtail; 320 g/ha,0 (Herbicidal rate of 5% or less (almost no effect))
same,herbicidal effect on J: blackgrass,blackgrass; 320 g/ha,0 (Herbicidal rate of 5% or less (almost no effect))
same,herbicidal effect on M: velvetleaf,velvetleaf; 320 g/ha,2 (Herbicidal rate of 20% or more and less than 40%)
same,herbicidal effect on K: Italian ryegrass,Italian ryegrass; 320 g/ha,0 (Herbicidal rate of 5% or less (almost no effect))
same,herbicidal effect on L: windgrass,windgrass; 320 g/ha,0 (Herbicidal rate of 5% or less (almost no effect))
